Source: patent publication US20190336537A1, “GENERATING ATRIAL AND VENTRICULAR CARDIOMYOCYTE LINEAGES FROM HUMAN PLURIPOTENT STEM CELLS” (UNIVERSITY HEALTH NETWORK, priority 2016, published 2019)

What was measured:
[1] = system: HES3 NKX2-5:GFP hESC-derived mesoderm; test: Specification of mesoderm populations to an atrial fate by ROH or RA (day 20 flow cytometry and qRT-PCR); type: cell-based, human; conditions: day 4, 5B/4A induced
[2] = system: HES3 NKX2-5:GFP hESC-derived day 20 EB populations; test: Flow cytometric and immunostaining analyses of day 20 EB populations (CTNT, MLC2V, NKX2-5, COUPTFII); type: cell-based, human; set-up: frequency of NKX2-5+SIRPa+ cells in day 20 populations: dose or concentration left out as unconfirmed
Description: For cardiac differentiation, we used a modified version of our embryoid body (EB)-based protocol (Kattman et al., 2011). hPSC populations at 80%-90% confluence were dissociated into single cells (TrypLE, ThermoFisher) and re-aggregated to form EBs in StemPro-34 media (ThermoFisher) containing penicillin/streptomycin (1%, ThermoFisher), L-glutamine (2 mM, ThermoFisher), trans-ferrin (150 μg/ml, ROCHE), ascorbic acid (50 μg/ml, Sigma), and monothioglycerol (50 μg/ml, Sigma), ROCK inhibitor Y-27632 (10 μM, TOCRIS) and rhBMP4 (1 ng/ml, R&D) for 18 h on an orbital shaker. At day 1, the EBs were transferred to mesoderm induction media consisting of StemPro-34 with above supplements (-ROCK inhibitor Y-27632) and rhBMP4, rhActivinA (R&D) and rhbFGF (5 ng/ml, R&D) at the indicated concentrations. At day 3, the EBs were harvested, washed with IMDM and transferred to cardiac mesoderm specification media consisting of StemPro-34, the Wnt inhibitor IWP2 (1 μM, TOCRIS) and rhVEGF (10 ng/mL, R&D). At day 5, the EBs were transferred to Stem Pro-34 with rhVEGF (5 ng/ml) for another 7 days and then to Stem Pro-34 media without additional cytokines for further 8 days. At day 20, HES3-NKX2-5gfp/w-derived cardiomyocytes were analyzed and isolated based on the expression of NKX2-5:GFP and SIRPa and a lack of CD90. Cardiomyocytes generated from non-transgenic hPSC lines were analyzed and isolated as SIRPa+CD90− populations. Media was changed every 3 days. Cultures were incubated in a low oxygen environment (5% CO2, 5% O2, 90% N2) for first 12 days and a normoxic environment (5% CO2) for the following 8 days in total of 20 days. The EBs were cultured in ultra-low attachment 6-well dishes (Corning) throughout the differentiation for maintaining suspension cultures.
Day 2-6 EBs were dissociated with TrypLE for 2-4 min at room temperature (RT). Day 20 EBs were dissociated by incubation in Collagenase type 2 (0.5 mg/ml, Worthington) in HANKs buffer overnight at RT followed by TrypLE treatment as described above. The following antibodies were used for staining: anti-PDGFRa-PE (R&D Systems, 3:50), anti-CD235a-APC (BD PharMingen, 1:100), antiSIRPa-PeCy7 (Biolegend, 1:1000), anti-CD90-APC (BD PharMingen, 1:1000), anticardiac isoform of CTNT (ThermoFisher Scientific, 1:2000), or anti-myosin light chain 2 (Abcam, 1:1000). For unconjugated primary antibodies, the following secondary antibodies were used for detection: goat anti-mouse IgG-APC (BD Pharmigen, 1:250), or donkey anti-rabbit IgG-PE (Jackson ImmunoResearch, 1:250). Detailed antibody information is described in Table 2.
For cell-surface marker analyses, cells were stained for 30 min at 4 degrees C. in FACS buffer consisting of PBS with 5% fetal calf serum (FCS) (Wisent) and 0.02% sodium azide. For intracellular staining, cells were fixed for 15 min at 4 degrees C. with 4% PFA in PBS followed by permeabilization using 90% methanol for 20 min at 4 degrees C. Cells were washed with PBS containing 0.5% BSA (Sigma) and stained with unconjugated primary antibodies in FACS buffer overnight at 4 degrees C. Stained cells were washed with PBS with 0.5% BSA and stained with secondary antibodies in FACS buffer for 1 h at 4 degrees C.
Stained cells were analyzed using the LSR II Flow cytometer (BD). For cell sorting, stained cells were kept in IMDM with 0.5% FCS and sorted using Influx (BD), FACSAriall (BD), MoFlo-XDP (BD) and FACSAria Fusion (BD) at the Sickids/UHN flow cytometry facility. Data were analyzed using FlowJo software (Tree Star).
Day 20 EBs were dissociated as described above and the cells plated onto 12 mm cover glasses (VWR) pre-coated with matrigel (25% v/v, BD). Cells were cultured for 3-5 days to enable the formation of adherent cell monolayers. Cells were fixed with
4% PFA in PBS for 10 min at room temperature and permeabilized with PBS containing 0.3% TritonX, 200 mM Glycine (Sigma) for 20 min at RT. Cells were blocked with PBS containing 10% FCS, 0.1% TritonX, and 2% BSA. […]

[3] = day 3 RA-treated mesoderm versus non-treated control

CC1=C(/C=C/C(C)=C/C=C/C(C)=C/C(=O)O)C(C)(C)CCC1 [RA, all trans retinoic acid]
atrial specification (MLC2V+, IRX4, NPPA, KCNJ3, NR2F2) ([1]; CD235a+ALDH− fraction): responded to RA
atrial specification (MLC2V+, IRX4, NPPA, KCNJ3, NR2F2) ([1]; CD235a−ALDH+ fraction): responded to RA
frequency of NKX2-5+SIRPa+ cells in day 20 populations ([2]; RA): dramatic reduction
proportion of NKX2-5-GFP− cells ([2]; RA treatment days 3-5, day 20): did not influence
frequency of COUPTFII+ cells [2, 3]: much higher frequency
proportion of MLC2V+ cells [2, 3]: dramatic reduction
